Measurements taken from PubChem BioAssay AID1963422 (Molecular Pharmacology Branch, DTP, NCI, 2024).

System: 463943-066-T-J2-PDC complex spheroid growth
Assay: Anticancer human tumor 463943-066-T-J2-PDC patient-derived colon adenocarcinoma cell line growth inhibition [Asc]
Conditions: for IC50: curve of first compound; for viability, T/C: stronger effect = lower value; active = viability on the fitted dose curve at most 10% of control; inactive = the rest
Procedure, shortened: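 Concentration series start at each agent's clinical Cmax, or at 10 microM when none is established, and drop in half-log steps; agents are applied alone or together to complex spheroids built with HUVEC and hMSC.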

[1] = second compound 0.0316 µM, first compound 0.00316 µM
[2] = second compound 0.0316 µM, first compound 0.01 µM
[3] = second compound 0.0316 µM, first compound 0.0316 µM
[4] = second compound 0.0316 µM, first compound 0.1 µM
[5] = second compound 0.0316 µM, first compound 0.316 µM
[6] = second compound 0.0316 µM, first compound 1 µM
[7] = second compound 0.1 µM, first compound 0.00316 µM
[8] = second compound 0.1 µM, first compound 0.01 µM
[9] = second compound 0.1 µM, first compound 0.0316 µM
[10] = second compound 0.1 µM, first compound 0.1 µM
[11] = second compound 0.1 µM, first compound 0.316 µM
[12] = second compound 0.1 µM, first compound 1 µM
[13] = second compound 0.316 µM, first compound 0.00316 µM
[14] = second compound 0.316 µM, first compound 0.01 µM
[15] = second compound 0.316 µM, first compound 0.0316 µM
[16] = second compound 0.316 µM, first compound 0.1 µM
[17] = second compound 0.316 µM, first compound 0.316 µM
[18] = second compound 0.316 µM, first compound 1 µM
[19] = second compound 1 µM, first compound 0.00316 µM
[20] = second compound 1 µM, first compound 0.01 µM
[21] = second compound 1 µM, first compound 0.0316 µM
[22] = second compound 1 µM, first compound 0.1 µM
[23] = second compound 1 µM, first compound 0.316 µM
[24] = second compound 1 µM, first compound 1 µM
[25] = second compound 3.16 µM, first compound 0.00316 µM
[26] = second compound 3.16 µM, first compound 0.01 µM
[27] = second compound 3.16 µM, first compound 0.0316 µM
[28] = second compound 3.16 µM, first compound 0.1 µM
[29] = second compound 3.16 µM, first compound 0.316 µM
[30] = second compound 3.16 µM, first compound 1 µM
[31] = second compound 10 µM, first compound 0.00316 µM
[32] = second compound 10 µM, first compound 0.01 µM
[33] = second compound 10 µM, first compound 0.0316 µM
[34] = second compound 10 µM, first compound 0.1 µM
[35] = second compound 10 µM, first compound 0.316 µM
[36] = second compound 10 µM, first compound 1 µM
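Note: compound exposure lasted 7 days.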
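Throughout, for viability, T/C: 100% = DMSO vehicle control wells.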

CCN1CCN(Cc2ccc(Nc3ncc(F)c(-c4cc(F)c5nc(C)n(C(C)C)c5c4)n3)nc2)CC1 + Cc1c(S(C)(=O)=O)c(-c2cc(F)cc(N3CCN(c4ccc(NS(=O)(=O)c5ccc(NC(CCN6CCC(C(=O)OCCCP(=O)(O)O)CC6)CSc6ccccc6)c(S(=O)(=O)C(F)(F)F)c5)cc4)CC3)c2)c(-c2ccc(Cl)cc2)n1C(C)C
inactive: viability, T/C [1] 98.2% | viability, T/C [2] 104% | viability, T/C [3] 87.9% | viability, T/C [4] 96.6% | viability, T/C [5] 109% | viability, T/C [6] 106% | viability, T/C [7] 94% | viability, T/C [8] 95.5% | viability, T/C [9] 92.1% | viability, T/C [10] 90.5% | viability, T/C [11] 103% | viability, T/C [12] 96.8% | viability, T/C [13] 90.9% | viability, T/C [14] 91.2% | viability, T/C [15] 84.4% | viability, T/C [16] 88.5% | viability, T/C [17] 90.3% | viability, T/C [18] 90% | viability, T/C [19] 79.7% | viability, T/C [20] 81.3% | viability, T/C [21] 76% | viability, T/C [22] 79% | viability, T/C [23] 80.6% | viability, T/C [24] 72.3% | viability, T/C [25] 61.8% | viability, T/C [26] 61.5% | viability, T/C [27] 62.4% | viability, T/C [28] 62.9% | viability, T/C [29] 60% | viability, T/C [30] 56% | viability, T/C [31] 49.1% | viability, T/C [32] 52.6% | viability, T/C [33] 51.4% | viability, T/C [34] 52.9% | viability, T/C [35] 51.2% | viability, T/C [36] 44.8%
393 nM: IC50 (second compound 10 µM)
> 1000 nM: IC50 (second compound 0.0316 µM) | IC50 (second compound 0.1 µM) | IC50 (second compound 0.316 µM) | IC50 (second compound 1 µM) | IC50 (second compound 3.16 µM)

Cn1ncnc1[C@H]1c2n[nH]c(=O)c3cc(F)cc(c23)N[C@@H]1c1ccc(F)cc1 + Cc1c(S(C)(=O)=O)c(-c2cc(F)cc(N3CCN(c4ccc(NS(=O)(=O)c5ccc(NC(CCN6CCC(C(=O)OCCCP(=O)(O)O)CC6)CSc6ccccc6)c(S(=O)(=O)C(F)(F)F)c5)cc4)CC3)c2)c(-c2ccc(Cl)cc2)n1C(C)C
< 0.316 nM: IC50 (second compound 10 µM)
> 100 nM: IC50 (second compound 0.0316 µM) | IC50 (second compound 0.1 µM) | IC50 (second compound 0.316 µM) | IC50 (second compound 1 µM) | IC50 (second compound 3.16 µM)
inactive: viability, T/C (second compound 0.0316 µM, first compound 0.000316 µM) 100% | viability, T/C (second compound 0.0316 µM, first compound 0.001 µM) 91.8% | viability, T/C [1] 93.6% | viability, T/C [2] 102% | viability, T/C [3] 92.2% | viability, T/C [4] 83% | viability, T/C (second compound 0.1 µM, first compound 0.000316 µM) 93% | viability, T/C (second compound 0.1 µM, first compound 0.001 µM) 94% | viability, T/C [7] 87.2% | viability, T/C [8] 91.6% | viability, T/C [9] 92.3% | viability, T/C [10] 80.1% | viability, T/C (second compound 0.316 µM, first compound 0.000316 µM) 91.1% | viability, T/C (second compound 0.316 µM, first compound 0.001 µM) 82% | viability, T/C [13] 84.5% | viability, T/C [14] 80.2% | viability, T/C [15] 86.7% | viability, T/C [16] 83.1% | viability, T/C (second compound 1 µM, first compound 0.000316 µM) 84.9% | viability, T/C (second compound 1 µM, first compound 0.001 µM) 74.4% | viability, T/C [19] 76.6% | viability, T/C [20] 79.8% | viability, T/C [21] 85.2% | viability, T/C [22] 71.2% | viability, T/C (second compound 3.16 µM, first compound 0.000316 µM) 61.7% | viability, T/C (second compound 3.16 µM, first compound 0.001 µM) 58.1% | viability, T/C [25] 61% | viability, T/C [26] 61% | viability, T/C [27] 68.3% | viability, T/C [28] 60.8% | viability, T/C (second compound 10 µM, first compound 0.000316 µM) 44.8% | viability, T/C (second compound 10 µM, first compound 0.001 µM) 50.5% | viability, T/C [31] 47.6% | viability, T/C [32] 46.8% | viability, T/C [33] 56.2% | viability, T/C [34] 45.6%

O=C(c1ccc(F)c(F)c1Nc1ccc(I)cc1F)N1CC(O)([C@@H]2CCCCN2)C1 + Cc1c(S(C)(=O)=O)c(-c2cc(F)cc(N3CCN(c4ccc(NS(=O)(=O)c5ccc(NC(CCN6CCC(C(=O)OCCCP(=O)(O)O)CC6)CSc6ccccc6)c(S(=O)(=O)C(F)(F)F)c5)cc4)CC3)c2)c(-c2ccc(Cl)cc2)n1C(C)C
< 3.16 nM: IC50 (second compound 10 µM)
95.2 nM: IC50 (second compound 0.0316 µM)
inactive: viability, T/C [1] 92% | viability, T/C [2] 80.6% | viability, T/C [3] 61.6% | viability, T/C [4] 52.2% | viability, T/C [5] 35.1% | viability, T/C [6] 28.1% | viability, T/C [7] 88.2% | viability, T/C [8] 76.3% | viability, T/C [9] 64.6% | viability, T/C [10] 50.5% | viability, T/C [11] 38.7% | viability, T/C [12] 24.4% | viability, T/C [13] 85.7% | viability, T/C [14] 77.8% | viability, T/C [15] 51.2% | viability, T/C [16] 45.2% | viability, T/C [17] 34.3% | viability, T/C [18] 24.8% | viability, T/C [19] 73.4% | viability, T/C [20] 61.6% | viability, T/C [21] 47.1% | viability, T/C [22] 36.7% | viability, T/C [23] 29.5% | viability, T/C [24] 20% | viability, T/C [25] 55.3% | viability, T/C [26] 51.8% | viability, T/C [27] 38.6% | viability, T/C [28] 33.8% | viability, T/C [29] 22.6% | viability, T/C [30] 16.6% | viability, T/C [31] 43.1% | viability, T/C [32] 41.1% | viability, T/C [33] 34% | viability, T/C [34] 25.9% | viability, T/C [35] 16.7% | viability, T/C [36] 12.3%
111 nM: IC50 (second compound 0.1 µM)
55.9 nM: IC50 (second compound 0.316 µM)
9.46 nM: IC50 (second compound 3.16 µM)
26.8 nM: IC50 (second compound 1 µM)
